Measurements published in PubChem BioAssay (NCI).
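Five compound concentrations were applied to cells in 96-well plates for 48 hours; endpoints were derived by simple linear interpolation of the resulting dose-response curve. TGI: concentration producing complete growth inhibition.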

How the values were obtained:
Test in all cases: growth of human tumour cells (NCI), 48 h
[1] = tested on: 786-0 renal
[2] = tested on: A498 renal
[3] = tested on: A549 NSCLC
[4] = tested on: ACHN renal
[5] = tested on: BT-549 breast
[6] = tested on: CAKI-1 renal
[7] = tested on: CCRF-CEM leukemia
[8] = tested on: COLO 205 colon
[9] = tested on: DU-145 prostate
[10] = tested on: EKVX NSCLC
[11] = tested on: HCC-2998 colon
[12] = tested on: HCT-116 colon
[13] = tested on: HCT-15 colon
[14] = tested on: HL-60(TB) leukemia
[15] = tested on: HOP-62 NSCLC
[16] = tested on: HOP-92 NSCLC
[17] = tested on: HS 578T breast
[18] = tested on: HT29 colon
[19] = tested on: IGROV1 ovarian
[20] = tested on: K-562 leukemia
[21] = tested on: KM12 colon
[22] = tested on: LOX IMVI melanoma
[23] = tested on: M14 melanoma
[24] = tested on: MALME-3M melanoma
[25] = tested on: MCF7 breast
[26] = tested on: MDA-MB-231 breast
[27] = tested on: MDA-MB-435
[28] = tested on: MDA-N
[29] = tested on: MOLT-4 leukemia
[30] = tested on: NCI-H226 lung
[31] = tested on: NCI-H23 lung
[32] = tested on: NCI-H460 lung
[33] = tested on: NCI-H522 lung
[34] = tested on: NCI/ADR-RES ovarian
[35] = tested on: OVCAR-3 ovarian
[36] = tested on: OVCAR-4 ovarian
[37] = tested on: OVCAR-5 ovarian
[38] = tested on: OVCAR-8 ovarian
[39] = tested on: PC-3 prostate
[40] = tested on: RPMI-8226 leukemia
[41] = tested on: RXF 393 renal
[42] = tested on: SF-268 CNS
[43] = tested on: SF-295 CNS
[44] = tested on: SF-539 CNS
[45] = tested on: SK-MEL-2 melanoma
[46] = tested on: SK-MEL-28 melanoma
[47] = tested on: SK-MEL-5 melanoma
[48] = tested on: SK-OV-3 ovarian
[49] = tested on: SN12C renal
[50] = tested on: SNB-19 CNS
[51] = tested on: SR leukemia
[52] = tested on: SW-620 colon
[53] = tested on: T-47D breast
[54] = tested on: TK-10 renal
[55] = tested on: U251 CNS
[56] = tested on: UACC-257 melanoma
[57] = tested on: UACC-62 melanoma
[58] = tested on: UO-31 renal
[59] = tested on: SNB-75 CNS

In the case of Nc1nc(-c2cccnc2)cc(-c2cc(-c3cccnc3)nc(N)n2)n1, the TGI [1] is reported as > 100 µM, the TGI [2] is reported as > 100 µM and the TGI [3] is reported as > 100 µM. The TGI [4] was > 100 µM, the TGI [5] was > 100 µM and the TGI [6] was > 100 µM. The TGI [7] was > 100 µM, the TGI [8] was > 100 µM and the TGI [9] was > 100 µM. The TGI [10] was > 100 µM, the TGI [11] was > 100 µM and the TGI [12] was > 100 µM. The TGI [13] was > 100 µM, the TGI [14] was > 100 µM and the TGI [15] was > 100 µM. The TGI [16] was > 100 µM, the TGI [17] was > 100 µM and the TGI [18] was > 100 µM. The TGI [19] was > 100 µM, the TGI [20] was > 100 µM and the TGI [21] was > 100 µM. The TGI [22] was > 100 µM, the TGI [23] was > 100 µM and the TGI [24] was > 100 µM. For the same compound, the TGI [25] was > 100 µM, the TGI [26] was > 100 µM and the TGI [27] was > 100 µM. For the same compound, the TGI [28] was > 100 µM, the TGI [29] was > 100 µM and the TGI [30] was > 100 µM. For the same compound, the TGI [31] was > 100 µM, the TGI [32] was > 100 µM and the TGI [33] was > 100 µM. For the same compound, the TGI [34] was > 100 µM, the TGI [35] was > 100 µM and the TGI [36] was > 100 µM. For the same compound, the TGI [37] was > 100 µM, the TGI [38] was > 100 µM and the TGI [39] was > 100 µM. The TGI [40] was > 100 µM, the TGI [41] was > 100 µM and the TGI [42] was > 100 µM. The TGI [43] was > 100 µM, the TGI [44] was > 100 µM and the TGI [45] was > 100 µM. For the same compound, the TGI [46] was > 100 µM, the TGI [47] was > 100 µM and the TGI [48] was > 100 µM. The TGI [49] was > 100 µM, the TGI [50] was > 100 µM and the TGI [51] was > 100 µM. For the same compound, the TGI [52] was > 100 µM, the TGI [53] was > 100 µM and the TGI [54] was > 100 µM. The TGI [55] was > 100 µM, the TGI [56] was > 100 µM and the TGI [57] was > 100 µM. For the same compound, the TGI [58] was > 100 µM.

With Cc1cc(C)c2c(=O)n(CC(O)CN(Cc3ccccc3)CC(O)Cn3sc4nc(C)cc(C)c4c3=O)sc2n1 (centres undefined) the TGI [1] was 27.7 µM, the TGI [3] was 40.7 µM and the TGI [4] was 30.1 µM. For the same compound, the TGI [5] was 38.3 µM, the TGI [6] was 33.4 µM and the TGI [7] was > 100 µM. For the same compound, the TGI [8] was 21.3 µM, the TGI [9] was 31.7 µM and the TGI [10] was 44.5 µM. The TGI [11] was 35.7 µM, the TGI [12] was 31.5 µM and the TGI [13] was 34.4 µM. The TGI [14] was > 100 µM, the TGI [15] was 30.1 µM and the TGI [16] was 31.7 µM. For the same compound, the TGI [17] was 40.4 µM, the TGI [18] was 37.4 µM and the TGI [19] was 31.7 µM. For the same compound, the TGI [20] was > 100 µM, the TGI [21] was 31.4 µM and the TGI [22] was 33.9 µM. For the same compound, the TGI [23] was 32.9 µM, the TGI [24] was 27.4 µM and the TGI [25] was 32.1 µM. The TGI [26] was 31.6 µM, the TGI [27] was 31.4 µM and the TGI [28] was 32.8 µM. The TGI [29] was > 100 µM, the TGI [30] was 33.5 µM and the TGI [31] was 33.4 µM. For the same compound, the TGI [32] was 39.3 µM, the TGI [33] was 22 µM and the TGI [34] was 67.2 µM. It also gave a TGI [35] of 29.8 µM, a TGI [36] of 32.4 µM and a TGI [37] of 36.4 µM. For the same compound, the TGI [38] was 34.5 µM, the TGI [39] was 30.4 µM and the TGI [40] was > 100 µM. The TGI [41] was 33.6 µM, the TGI [42] was 30.9 µM and the TGI [43] was 61.9 µM. It also gave a TGI [44] of 32 µM, a TGI [45] of 33.1 µM and a TGI [46] of 74.1 µM. For the same compound, the TGI [47] was 30.1 µM, the TGI [48] was 73.6 µM and the TGI [49] was 32.7 µM. The TGI [50] was 34.7 µM, the TGI [59] was 28.9 µM and the TGI [51] was > 100 µM. For the same compound, the TGI [52] was > 100 µM, the TGI [53] was 41 µM and the TGI [54] was 31.5 µM. The TGI [55] was 30.6 µM, the TGI [56] was 31.7 µM and the TGI [57] was 30.6 µM. For the same compound, the TGI [58] was 31.6 µM.

For COC(=O)C1(Cc2ccccc2)Cc2ccccc2C1O (centres undefined), the TGI [1] was > 100 µM, the TGI [2] was > 100 µM and the TGI [3] was > 100 µM. For the same compound, the TGI [4] was > 100 µM, the TGI [5] was > 100 µM and the TGI [6] was > 100 µM. The TGI [7] was > 100 µM, the TGI [8] was > 100 µM and the TGI [9] was > 100 µM. For the same compound, the TGI [10] was > 100 µM, the TGI [11] was > 100 µM and the TGI [12] was > 100 µM. The TGI [13] was > 100 µM, the TGI [14] was > 100 µM and the TGI [15] was > 100 µM. The TGI [17] was > 100 µM, the TGI [18] was > 100 µM and the TGI [19] was > 100 µM. For the same compound, the TGI [20] was > 100 µM, the TGI [21] was > 100 µM and the TGI [22] was > 100 µM. For the same compound, the TGI [24] was > 100 µM, the TGI [25] was > 100 µM and the TGI [26] was > 100 µM. For the same compound, the TGI [27] was > 100 µM, the TGI [28] was > 100 µM and the TGI [29] was > 100 µM. The TGI [30] was > 100 µM, the TGI [31] was > 100 µM and the TGI [32] was > 100 µM. For the same compound, the TGI [33] was > 100 µM, the TGI [34] was > 100 µM and the TGI [35] was > 100 µM. For the same compound, the TGI [36] was > 100 µM, the TGI [37] was > 100 µM and the TGI [38] was > 100 µM. For the same compound, the TGI [39] was > 100 µM, the TGI [40] was > 100 µM and the TGI [41] was > 100 µM. For the same compound, the TGI [42] was > 100 µM, the TGI [43] was > 100 µM and the TGI [44] was > 100 µM. The TGI [46] was > 100 µM, the TGI [47] was > 100 µM and the TGI [48] was > 100 µM. The TGI [49] was > 100 µM, the TGI [59] was > 100 µM and the TGI [51] was > 100 µM. The TGI [52] was > 100 µM, the TGI [53] was > 100 µM and the TGI [54] was > 100 µM. The TGI [55] was > 100 µM, the TGI [56] was > 100 µM and the TGI [57] was > 100 µM. For the same compound, the TGI [58] was > 100 µM.

C[N+]1(C(CO)Cc2c[nH]c3ccccc23)Cc2ccccc2C1 (centres undefined) was tested, and the TGI [1] was > 100 µM, the TGI [2] was > 100 µM and the TGI [3] was > 100 µM. For the same compound, the TGI [4] was > 100 µM, the TGI [5] was > 100 µM and the TGI [6] was > 100 µM. The TGI [7] was > 100 µM, the TGI [8] was > 100 µM and the TGI [9] was > 100 µM. The TGI [10] was > 100 µM, the TGI [11] was > 100 µM and the TGI [12] was > 100 µM. The TGI [13] was > 100 µM, the TGI [14] was > 100 µM and the TGI [15] was > 100 µM. For the same compound, the TGI [16] was > 100 µM, the TGI [17] was > 100 µM and the TGI [18] was > 100 µM. The TGI [19] was > 100 µM, the TGI [20] was > 100 µM and the TGI [21] was > 100 µM. For the same compound, the TGI [22] was > 100 µM, the TGI [23] was > 100 µM and the TGI [24] was 81 µM. The TGI [25] was > 100 µM, the TGI [26] was > 100 µM and the TGI [27] was > 100 µM. For the same compound, the TGI [28] was > 100 µM, the TGI [29] was > 100 µM and the TGI [30] was > 100 µM. For the same compound, the TGI [31] was > 100 µM, the TGI [32] was > 100 µM and the TGI [33] was > 100 µM. For the same compound, the TGI [34] was > 100 µM, the TGI [35] was > 100 µM and the TGI [36] was > 100 µM. The TGI [37] was > 100 µM, the TGI [38] was > 100 µM and the TGI [39] was > 100 µM. The TGI [40] was > 100 µM, the TGI [41] was > 100 µM and the TGI [42] was > 100 µM. For the same compound, the TGI [43] was > 100 µM, the TGI [45] was > 100 µM and the TGI [46] was > 100 µM. For the same compound, the TGI [47] was > 100 µM, the TGI [48] was > 100 µM and the TGI [49] was > 100 µM. The TGI [50] was > 100 µM, the TGI [59] was > 100 µM and the TGI [51] was > 100 µM. The TGI [52] was > 100 µM, the TGI [53] was > 100 µM and the TGI [54] was > 100 µM. For the same compound, the TGI [55] was > 100 µM, the TGI [56] was > 100 µM and the TGI [57] was > 100 µM. For the same compound, the TGI [58] was > 100 µM.
